These results are taken from ChEMBL document CHEMBL5465560, “Selectivity Literature for EUbOPEN Chemogenomic Library” (2024).

SMILES strings stand for the structures.

The target in test [1] is T1, Ephrin type-A receptor 8 (Homo sapiens) (UniProt P29322).
T1 sequence (whole entry): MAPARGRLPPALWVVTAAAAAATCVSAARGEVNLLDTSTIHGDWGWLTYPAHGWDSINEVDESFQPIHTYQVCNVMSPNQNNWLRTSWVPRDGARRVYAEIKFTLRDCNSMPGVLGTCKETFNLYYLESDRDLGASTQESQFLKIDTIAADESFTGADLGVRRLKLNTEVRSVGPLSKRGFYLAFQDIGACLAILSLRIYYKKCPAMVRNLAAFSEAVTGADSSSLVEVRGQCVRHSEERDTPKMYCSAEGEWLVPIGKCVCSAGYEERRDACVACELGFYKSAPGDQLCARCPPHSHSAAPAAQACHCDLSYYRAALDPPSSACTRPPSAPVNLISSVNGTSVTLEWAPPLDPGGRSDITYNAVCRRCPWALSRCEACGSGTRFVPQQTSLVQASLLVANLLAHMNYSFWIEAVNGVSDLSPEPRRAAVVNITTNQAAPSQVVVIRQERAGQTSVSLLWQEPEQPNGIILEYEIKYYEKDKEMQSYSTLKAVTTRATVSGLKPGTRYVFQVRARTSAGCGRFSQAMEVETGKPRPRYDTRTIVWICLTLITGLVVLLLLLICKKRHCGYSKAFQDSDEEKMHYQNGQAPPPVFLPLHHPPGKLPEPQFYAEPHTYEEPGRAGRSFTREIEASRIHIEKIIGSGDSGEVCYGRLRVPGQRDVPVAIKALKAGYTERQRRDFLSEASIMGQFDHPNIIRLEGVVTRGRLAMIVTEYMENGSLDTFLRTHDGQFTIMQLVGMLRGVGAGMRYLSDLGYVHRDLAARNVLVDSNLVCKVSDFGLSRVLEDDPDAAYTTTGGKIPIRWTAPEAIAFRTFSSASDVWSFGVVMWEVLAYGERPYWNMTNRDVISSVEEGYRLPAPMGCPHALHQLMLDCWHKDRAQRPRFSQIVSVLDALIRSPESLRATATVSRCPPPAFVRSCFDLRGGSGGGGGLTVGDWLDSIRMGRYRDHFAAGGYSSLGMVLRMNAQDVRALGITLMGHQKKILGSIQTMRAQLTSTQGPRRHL
The note with it: at 10 µM.

The target in test [2] is Calcium/calmodulin-dependent protein kinase type 1D (Homo sapiens) (UniProt Q8IU85). As to the kind of experiment: Selectivity interaction (KinomeScan (DiscoverX)) EUB0001079a CAMK1D. To be noted: at 1 µM.
Test [3] addresses Protein kinase C beta type (Homo sapiens, UniProt P05771). As to the kind of experiment: Selectivity interaction (Millipore kinase profiler) EUB0000124b PRKCB. To be noted: at 10 µM.
Test [4] has as its target T2, Serine/threonine-protein kinase ULK2 (Homo sapiens) (UniProt Q8IYT8).
T2 sequence (whole entry): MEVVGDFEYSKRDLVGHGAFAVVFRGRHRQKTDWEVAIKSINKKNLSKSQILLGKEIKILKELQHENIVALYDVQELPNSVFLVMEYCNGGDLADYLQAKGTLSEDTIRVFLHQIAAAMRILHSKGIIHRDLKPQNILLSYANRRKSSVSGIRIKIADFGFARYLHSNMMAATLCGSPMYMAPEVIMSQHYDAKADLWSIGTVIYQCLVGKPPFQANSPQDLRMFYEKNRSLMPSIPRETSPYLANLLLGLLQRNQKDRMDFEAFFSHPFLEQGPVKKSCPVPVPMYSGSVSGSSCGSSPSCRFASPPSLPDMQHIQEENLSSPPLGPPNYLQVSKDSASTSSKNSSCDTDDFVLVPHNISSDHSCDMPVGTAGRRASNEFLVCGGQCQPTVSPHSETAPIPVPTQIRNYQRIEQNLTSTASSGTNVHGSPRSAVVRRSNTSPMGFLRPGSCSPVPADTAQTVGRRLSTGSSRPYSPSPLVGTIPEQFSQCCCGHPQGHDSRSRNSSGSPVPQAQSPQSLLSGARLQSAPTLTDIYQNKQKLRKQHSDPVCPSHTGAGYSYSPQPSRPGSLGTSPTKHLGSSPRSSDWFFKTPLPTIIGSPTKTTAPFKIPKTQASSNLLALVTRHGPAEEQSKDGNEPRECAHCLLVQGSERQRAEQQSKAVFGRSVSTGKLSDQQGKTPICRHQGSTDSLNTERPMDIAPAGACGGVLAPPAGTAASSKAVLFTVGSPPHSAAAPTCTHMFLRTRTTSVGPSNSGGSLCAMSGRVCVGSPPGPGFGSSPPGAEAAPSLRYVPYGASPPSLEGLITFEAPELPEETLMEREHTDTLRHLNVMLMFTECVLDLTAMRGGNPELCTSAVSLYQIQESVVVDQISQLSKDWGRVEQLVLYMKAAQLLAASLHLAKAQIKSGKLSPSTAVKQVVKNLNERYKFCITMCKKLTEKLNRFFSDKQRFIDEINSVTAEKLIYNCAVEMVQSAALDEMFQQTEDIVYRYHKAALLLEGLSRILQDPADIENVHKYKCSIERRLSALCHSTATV
As to the kind of experiment: Selectivity interaction (KinomeScan (DiscoverX)) EUB0000092b ULK2. The note with it: at 10 µM.

The target in test [5] is Serine/threonine-protein kinase PRP4 homolog (Homo sapiens) (UniProt Q13523). The experiment in a line: Selectivity interaction (ActivX KiNativ screen (kinase selectivity in THP-1 cell lysates)) EUB0000639a PRPF4. The class given is subcellular. To be noted: lysate, at 5 µM.
The target of test [6] is Casein kinase I isoform alpha (Homo sapiens, UniProt P48729). As to the kind of experiment: Selectivity interaction (ActivX KiNativ screen (kinase selectivity in THP-1 cell lysates)) EUB0000639a CSNK1A1. The class given is subcellular. The note with it: lysate, at 0.04 µM.
Test [7] addresses Cyclin-dependent kinase 16 (Homo sapiens) (UniProt Q00536). The experiment in a line: Selectivity interaction (ActivX KiNativ screen (ex vivo kinase selectivity in human PBMCs)) EUB0001619a CDK16. The class given is cell-based. The note with it: PBMC, at 1 µM.
The target of test [8] is T3, Aurora kinase A (Homo sapiens) (UniProt O14965).
T3 sequence (whole entry): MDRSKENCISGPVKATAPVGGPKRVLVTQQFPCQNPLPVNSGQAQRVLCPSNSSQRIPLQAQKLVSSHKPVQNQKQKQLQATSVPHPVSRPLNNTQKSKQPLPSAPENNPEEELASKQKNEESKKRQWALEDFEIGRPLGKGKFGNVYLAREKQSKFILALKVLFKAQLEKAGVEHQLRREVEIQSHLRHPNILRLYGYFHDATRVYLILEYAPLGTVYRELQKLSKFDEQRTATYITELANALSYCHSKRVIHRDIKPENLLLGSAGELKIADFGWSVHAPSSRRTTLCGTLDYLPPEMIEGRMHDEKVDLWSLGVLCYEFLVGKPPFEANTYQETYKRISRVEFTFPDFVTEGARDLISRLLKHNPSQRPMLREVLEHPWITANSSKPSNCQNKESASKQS
The experiment in a line: Selectivity interaction (Kinase panel (KiNativ target engagement assay in Jurkat cells)) EUB0001635a STK6. The note with it: at 1 µM. The class given is cell-based.

Sequence of Serine/threonine-protein kinase PRP4 homolog (Homo sapiens) (Q13523 whole entry, canonical isoform): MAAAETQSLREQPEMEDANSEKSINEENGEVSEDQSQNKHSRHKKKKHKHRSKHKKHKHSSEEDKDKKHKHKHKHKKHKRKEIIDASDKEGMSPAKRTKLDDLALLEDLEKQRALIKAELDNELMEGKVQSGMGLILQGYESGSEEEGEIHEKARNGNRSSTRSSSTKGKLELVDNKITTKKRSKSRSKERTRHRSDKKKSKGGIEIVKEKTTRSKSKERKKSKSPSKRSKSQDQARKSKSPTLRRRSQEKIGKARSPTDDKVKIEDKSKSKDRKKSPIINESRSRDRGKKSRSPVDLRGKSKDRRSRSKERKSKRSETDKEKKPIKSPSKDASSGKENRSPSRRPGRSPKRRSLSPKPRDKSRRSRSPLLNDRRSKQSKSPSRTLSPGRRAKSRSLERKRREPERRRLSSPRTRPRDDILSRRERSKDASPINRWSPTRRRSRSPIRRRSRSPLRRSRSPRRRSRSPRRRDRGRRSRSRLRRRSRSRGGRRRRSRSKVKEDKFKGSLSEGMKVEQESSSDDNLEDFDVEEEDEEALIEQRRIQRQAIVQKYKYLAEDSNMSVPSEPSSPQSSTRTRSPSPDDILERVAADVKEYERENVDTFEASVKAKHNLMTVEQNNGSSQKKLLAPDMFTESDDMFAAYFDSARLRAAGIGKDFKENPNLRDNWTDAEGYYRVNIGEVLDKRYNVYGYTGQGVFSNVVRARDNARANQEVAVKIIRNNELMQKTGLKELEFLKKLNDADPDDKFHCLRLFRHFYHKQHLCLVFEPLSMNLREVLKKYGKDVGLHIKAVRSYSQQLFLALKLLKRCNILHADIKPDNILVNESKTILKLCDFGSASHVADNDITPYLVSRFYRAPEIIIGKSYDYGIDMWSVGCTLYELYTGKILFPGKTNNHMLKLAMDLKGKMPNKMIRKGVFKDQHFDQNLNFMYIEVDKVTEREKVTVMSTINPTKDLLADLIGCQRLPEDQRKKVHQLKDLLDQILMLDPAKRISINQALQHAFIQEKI
Sequence of Protein kinase C beta type (P05771 2-671 limits assumed): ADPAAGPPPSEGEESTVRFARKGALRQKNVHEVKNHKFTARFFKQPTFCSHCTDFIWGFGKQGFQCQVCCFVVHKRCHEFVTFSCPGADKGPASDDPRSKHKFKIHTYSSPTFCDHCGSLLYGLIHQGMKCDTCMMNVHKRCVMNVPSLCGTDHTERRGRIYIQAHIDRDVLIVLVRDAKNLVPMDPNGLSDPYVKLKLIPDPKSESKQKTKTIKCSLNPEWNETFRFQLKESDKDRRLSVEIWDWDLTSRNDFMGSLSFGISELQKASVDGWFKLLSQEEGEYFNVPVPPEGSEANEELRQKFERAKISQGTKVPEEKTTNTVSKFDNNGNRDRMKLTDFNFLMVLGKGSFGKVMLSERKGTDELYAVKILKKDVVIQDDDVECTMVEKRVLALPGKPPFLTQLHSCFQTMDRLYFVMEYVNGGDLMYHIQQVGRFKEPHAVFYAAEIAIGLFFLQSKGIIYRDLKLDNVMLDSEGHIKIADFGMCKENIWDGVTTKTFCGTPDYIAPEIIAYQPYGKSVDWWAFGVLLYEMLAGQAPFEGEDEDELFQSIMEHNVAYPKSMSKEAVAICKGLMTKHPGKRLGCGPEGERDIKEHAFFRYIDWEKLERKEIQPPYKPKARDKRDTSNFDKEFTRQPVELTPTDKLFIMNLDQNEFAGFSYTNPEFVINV
Sequence of Cyclin-dependent kinase 16 (Homo sapiens) (Q00536 whole entry): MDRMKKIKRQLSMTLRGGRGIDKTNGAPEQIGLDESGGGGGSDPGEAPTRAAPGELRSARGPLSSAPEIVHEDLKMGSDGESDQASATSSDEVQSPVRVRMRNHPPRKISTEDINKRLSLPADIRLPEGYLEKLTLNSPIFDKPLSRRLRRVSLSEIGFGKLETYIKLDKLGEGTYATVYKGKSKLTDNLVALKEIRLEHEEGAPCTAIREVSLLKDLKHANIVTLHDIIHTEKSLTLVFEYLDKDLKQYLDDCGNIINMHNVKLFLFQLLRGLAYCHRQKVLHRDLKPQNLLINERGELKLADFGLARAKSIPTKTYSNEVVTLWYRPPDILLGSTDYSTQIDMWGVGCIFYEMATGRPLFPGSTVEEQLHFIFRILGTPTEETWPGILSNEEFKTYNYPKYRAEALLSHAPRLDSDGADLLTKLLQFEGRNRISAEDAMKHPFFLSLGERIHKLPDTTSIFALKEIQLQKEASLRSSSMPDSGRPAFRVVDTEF
Sequence of Casein kinase I isoform alpha (P48729 2-337 limits assumed): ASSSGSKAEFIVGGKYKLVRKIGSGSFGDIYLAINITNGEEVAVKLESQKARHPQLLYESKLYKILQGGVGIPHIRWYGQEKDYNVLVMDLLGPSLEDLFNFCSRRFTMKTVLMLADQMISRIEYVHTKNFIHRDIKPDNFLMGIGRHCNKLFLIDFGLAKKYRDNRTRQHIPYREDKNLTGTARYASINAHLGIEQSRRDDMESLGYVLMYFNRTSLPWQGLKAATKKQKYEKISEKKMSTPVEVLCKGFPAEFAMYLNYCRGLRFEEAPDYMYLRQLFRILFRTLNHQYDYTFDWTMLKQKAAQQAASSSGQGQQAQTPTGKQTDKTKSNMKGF
Sequence of Calcium/calmodulin-dependent protein kinase type 1D (Homo sapiens) (Q8IU85 whole entry, looked up): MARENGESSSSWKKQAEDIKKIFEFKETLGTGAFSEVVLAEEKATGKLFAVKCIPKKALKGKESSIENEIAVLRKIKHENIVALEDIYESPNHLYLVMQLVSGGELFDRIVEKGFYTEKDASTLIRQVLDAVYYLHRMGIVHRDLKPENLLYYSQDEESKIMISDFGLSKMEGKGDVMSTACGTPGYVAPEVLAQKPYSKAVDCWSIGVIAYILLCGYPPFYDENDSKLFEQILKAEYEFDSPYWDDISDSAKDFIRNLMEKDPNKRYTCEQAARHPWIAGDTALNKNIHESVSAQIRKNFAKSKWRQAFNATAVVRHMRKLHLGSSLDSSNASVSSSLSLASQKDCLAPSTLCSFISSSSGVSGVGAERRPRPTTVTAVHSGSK

In test [1], `CCN(CC)CCCCNc1ncc2cc(-c3cc(OC)cc(OC)c3)c(NC(=O)NC(C)(C)C)nc2n1` displayed a % of control of 100%.

Consider `Nc1cnc(N2CCc3cc(S(=O)(=O)Nc4c(F)cc(Cl)cc4F)cc(N4CCCC4=O)c32)nc1` [TP-020n], for which the % of control in test [2] is 97%.

With `CC(=O)Nc1cccc(-n2c(=O)n(C3CC3)c(=O)c3c(Nc4ccc(I)cc4F)n(C)c(=O)c(C)c32)c1`, the % of control in test [3] is 102%.

`CCC(=O)N1CCN(c2ccc(-n3c(=O)ccc4cnc5ccc(-c6cnc7ccccc7c6)cc5c43)cc2C(F)(F)F)CC1` came in with a % of control in test [4] of 75%.

Turning to `CC[C@@H]1[C@H](F)C(=O)N[C@@H]1COc1nccc2cc(C(N)=O)c(OC)cc12` [ZIMLOVISERTIB], the values for the % of inhibition in test [5] and in test [6] were 85.9% and -2.5%, respectively.

For `N#Cc1cccc(-c2c[nH]c3ncnc(N4CCOCC4)c23)c1`, in test [7], the % of inhibition came to 25%.

Take `C=CC(=O)Nc1ccc(C(=O)Nc2[nH]nc3c2CN(C(=O)N[C@H](CN(C)C)c2ccccc2)C3(C)C)cc1`: the % of engagement in test [8] (Selectivity number of off-targets 0.0, Selectivity number of targets 233.0, Source Knowledge https://www.sciencedirect.com/science/article/pii/S2451945619300674?via%3Dihub) came to 22.4%; in test [8] it was 26%.
